The source of these data is patent publication US8575338B2, “Pyrimidine, pyridine and triazine derivatives as maxi-K channel openers” (Mitsubishi Tanabe Pharma Corporation, priority 2008, dated 2013).

Assay [1] addresses T1, human BKαβ1 channels (Homo sapiens, UniProt Q12791).
T1 construct: expressed in transfected cells; host or cells: CHO cells (G418 and hygromycin selection)
In words: BK current in CHO cells expressing human BKαβ1 (PatchXpress whole-cell patch clamp), EC100. Particulars: drug concentration causing 100% increase of BK current. It is filed as cell-based. The procedure:
Methods for Testing Compounds on Human BKαβ1 Channels Expressed Cho Cells
CHO cells expressing human BKαβ1 were cultured in T75 or 6 well cell culture cluster. Medium: DMEM/F12+10% FBS+0.5 mg/mL G418/genetecin+0.1 mg/mL Hygromycin. Split cells every 3-4 days at 80-90% confluence. Use cells for experiments 60-72 hrs after re-passage and at ˜90% confluence.
Trypsin solution (0.05% Trypsin+0.1% EDTA), Ca^2+ free PBS and culture medium were warmed to 37° C. Inspect the T75 flask for cell confluence. Remove culture medium and add warm Ca^2+ free PBS to wash cells. Remove Ca^2+ free PBS and add warm Trypsin solution. Put the T75 flask back to 37° C. incubator for about 4.5 minutes. Stop Trypsin activity by adding culture medium. Spin the cells down. Suspend cells in 120-160 μL external solution for BK current recording and use the cells as soon as possible.
PatchXpress Sealchip 16 electrodes (AVIVA Biosciences) and PatchXpress 7000A (Axon Instruments, Inc) were used for BK current recording. Flat bottom 1.5 mL glass vial (HiPep Laboratories) were used for containing external solutions (±compounds). The holes in the sealchip (equivalent to patch electrode) had resistance about 1.5 MΩ. Cell membrane capacitance was compensated and access resistance was also compensated by 40%. Voltage-clamp protocol: Holding voltage=0 mV. Record BK current during 200-ms steps between +80 to +120 mV in 10 mV increments and 2 sec inter-pulse interval. On-line digital leak subtraction was performed by a P/−4 procedure. After whole-cell configuration was established, 2 minute was used to optimize access resistance. Then the chamber was washed with control bath solution for 1 minute to remove excessive cells. Control bath solution was added with robotic pipette and control BK current was recorded after 1 minute equilibrium time. For each drug concentration, 45 μL drug solution was added three times with “suction before adding” mode which left old solution. For each drug addition, 1 minute equilibrium time was given. BK current was measured at each drug concentrations (usually within 3.5 minutes after first drug addition). Calculate % change of BK current at the voltage step when the control BK current first exceeding 200 pA. If the control BK current was less than 200 pA at 120 mV, the cell was not used. % changes were calculated as 100*(Id−Ic)/Ic, where Id was the current amplitude in the presence of drug and Ic was the control current amplitude.
EC100 was defined as the drug concentration causing 100% increase of BK current calculated by the method described above. EC100 was determined by the data points just below and above 100%. % Increase of BK current was plotted against log [drug concentration]. A straight line connected two data points flanking 100%. From this straight line, the concentration corresponding to 100% increase of BK current was determined as EC100.
Compounds were dissolved in DMSO to make 10 mM stock solutions. Subsequent dilutions were made with external solution. The testing drug concentrations were 0.1, 0.3, 1, 3 and 10 μM depending on the potency of compounds. The highest DMSO concentration was 0.1%. External solution (in mM): 140 NaCl, 4 KCl, 1 MgCl2, 2 CaCl2, 10 Glucose, 10 HEPES; pH=7.4 with NaOH. Internal solution (in mM): 140 KCl, 5 EGTA, 1 MgCl2, 5 MgATP, 0.2 CaCl2, 5 HEPES; pH=7.2 with KOH.

The test system of assay [2] is rhythmic bladder contractions. In words: Inhibitory effect on the rhythmic bladder contractions in anesthetized rats. It counts as in vivo, rat. The note with it: 10 mg/kg. An excerpt: Inhibitory Effect on the Rhythmic Bladder Contractions in Anesthetized Rats
Female Sprague-Dawley rats (9 to 12 weeks old weighing between 200 to 300 g) were anethethized with urethane (subcutaneously administered with a dose of 1.2 g/kg). Both ureters were cannulated to excrete urine. A cannula was inserted into the bladder via the urethra and secured with a ligature around the urethral opening and connected to a three-way stopcock. The ends were connected to a pressure transducer for measurement of bladder pressure and to a infusion pump for intravesical infusion of saline. A cannula was inserted in the femoral vein for intravenous (i.v.) drug administration. Following a over 20 minute post-surgical stabilization period and emptying of urine in the bladder, saline was infused into the bladder (50 μl/min) to evoke the micturition reflex. After the rhythmic bladder contractions had occurred, the saline infusion rate into the bladder was changed to 5 μl/min in order to maintain these contractions. Compounds were administered after stable rhythmic bladder contraction was obtained over 15 minutes. All compounds were dissolved in saline containing 10% dimethyl acetamide for intravenous administration (1 ml/kg). When iberiotoxin, a large conductance calcium-activated K channel blocker (0.15 mg/kg, i.v.) was administered for comparison purposes, it was administered 5 minutes before drug administration.
The frequencies (contractions per minute) of rhythmic bladder contractions were calculated for 10 minutes before and after drug administration. The efficacy of compounds expressed as percent of inhibition in frequency, which calculated from the following formula: (1−frequency after dosing/frequency before dosing)×100(%)

T1 sequence (Q12791 whole entry): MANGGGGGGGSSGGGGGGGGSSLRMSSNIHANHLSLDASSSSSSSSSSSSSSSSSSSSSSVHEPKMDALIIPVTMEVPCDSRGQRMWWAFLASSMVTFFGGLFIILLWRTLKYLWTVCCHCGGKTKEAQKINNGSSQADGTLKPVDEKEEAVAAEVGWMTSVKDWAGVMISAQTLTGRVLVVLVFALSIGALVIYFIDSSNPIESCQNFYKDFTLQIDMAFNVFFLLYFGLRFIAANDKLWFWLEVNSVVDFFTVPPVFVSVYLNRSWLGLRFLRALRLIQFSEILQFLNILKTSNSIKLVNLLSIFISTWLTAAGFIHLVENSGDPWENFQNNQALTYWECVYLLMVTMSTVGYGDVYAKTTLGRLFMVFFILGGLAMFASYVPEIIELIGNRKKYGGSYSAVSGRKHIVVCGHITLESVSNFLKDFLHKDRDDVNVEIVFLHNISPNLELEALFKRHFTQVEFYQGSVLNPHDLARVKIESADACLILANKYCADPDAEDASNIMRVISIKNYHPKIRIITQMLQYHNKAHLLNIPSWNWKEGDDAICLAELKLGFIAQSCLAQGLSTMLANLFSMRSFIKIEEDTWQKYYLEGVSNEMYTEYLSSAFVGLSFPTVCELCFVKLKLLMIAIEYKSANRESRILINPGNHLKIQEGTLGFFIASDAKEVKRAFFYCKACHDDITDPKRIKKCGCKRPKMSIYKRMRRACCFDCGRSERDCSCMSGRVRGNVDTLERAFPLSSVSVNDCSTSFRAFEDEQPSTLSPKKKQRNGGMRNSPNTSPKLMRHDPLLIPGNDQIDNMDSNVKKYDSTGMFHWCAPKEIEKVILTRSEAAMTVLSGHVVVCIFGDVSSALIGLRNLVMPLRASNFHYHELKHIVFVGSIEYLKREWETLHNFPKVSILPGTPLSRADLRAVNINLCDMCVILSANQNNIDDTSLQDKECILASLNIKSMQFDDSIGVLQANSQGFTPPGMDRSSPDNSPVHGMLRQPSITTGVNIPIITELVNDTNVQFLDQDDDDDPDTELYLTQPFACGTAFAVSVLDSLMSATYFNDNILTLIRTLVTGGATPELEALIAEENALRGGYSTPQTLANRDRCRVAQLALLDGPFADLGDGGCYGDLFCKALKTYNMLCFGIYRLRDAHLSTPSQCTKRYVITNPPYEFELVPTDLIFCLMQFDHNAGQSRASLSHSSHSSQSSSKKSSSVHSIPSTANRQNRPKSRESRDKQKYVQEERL
T1 sequence (Q16558 whole entry partner): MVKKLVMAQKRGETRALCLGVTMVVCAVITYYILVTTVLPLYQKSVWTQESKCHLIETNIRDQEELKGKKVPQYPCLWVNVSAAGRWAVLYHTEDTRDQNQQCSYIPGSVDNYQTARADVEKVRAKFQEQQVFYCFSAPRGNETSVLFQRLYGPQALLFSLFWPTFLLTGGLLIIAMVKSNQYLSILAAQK

The compound `CCO[C@H]1CCCN(c2nc(OC3(C(=O)[O-])CC3)cc(-c3cc(Cl)c(Cl)s3)n2)C1.[Na+]` [Example 1227] returned an EC100 in assay [1] of 0.37 µM. For the same compound, the “percent of inhibition in frequency of rhythmic bladder contractions” value (shortened to “percent of inhibition”) in assay [2] (anesthetized rats, intravenous) was “B (B: 50 > inhibition(%) > 30)”.

`Cc1ccc(Cl)cc1-c1nc(OC2(C(=O)[O-])CC2)nc(-c2ccc(Cl)cc2)n1.[Na+]` [Example 1091]: the EC100 in assay [1] came to 0.03 µM. Moreover, the “percent of inhibition” value in assay [2] (anesthetized rats, intravenous) was “B (B: 50 > inhibition(%) > 30)”.

`CCOc1cc(-c2nc(-c3ccc(F)cc3)nc(OC3(C(=O)[O-])CC3)c2C)ccc1F.[Na+]` [Example 977]: the EC100 in assay [1] stood at 0.13 µM. The “percent of inhibition” value in assay [2] (anesthetized rats, intravenous) is on record as “B (B: 50 > inhibition(%) > 30)”.

`COc1ccccc1-c1cc(OC2(C(=O)[O-])CCCC2)nc(-c2ccc(Cl)c(F)c2)n1.[Na+]` [Example 565] showed an EC100 in assay [1] of 0.28 µM. Besides, in assay [2] (anesthetized rats, intravenous), the “percent of inhibition” value was “B (B: 50 > inhibition(%) > 30)”.

Compound `COC[C@@H]1CCCN1c1cc(OC(C)(C)C(=O)[O-])nc(-c2ccc(Cl)c(F)c2)n1.[Na+]` [Example 12] returned an EC100 in assay [1] of 1.39 µM. Moreover, in assay [2] (anesthetized rats, intravenous), the “percent of inhibition” value is listed as “A (A: inhibition(%) > 50)”.

`CCC(CC)(Oc1cc(N2CCC[C@H]2COC)nc(-c2ccc(Cl)c(F)c2)n1)C(=O)[O-].[Na+]` [Example 31] came in with an EC100 in assay [1] of 0.14 µM. Further, in assay [2] (anesthetized rats, intravenous), the “percent of inhibition” value is “B (B: 50 > inhibition(%) > 30)”.

Take `CCCOC1CCN(c2cc(OC3(C(=O)[O-])CC3)nc(-c3ccc(C(F)(F)F)cc3)n2)CC1.[Na+]` [Example 693]: the “percent of inhibition” value in assay [2] (anesthetized rats, intravenous) was “A (A: inhibition(%) > 50)”.

Regarding `CC(C)(Oc1cc(N2CCC[C@H]2CF)nc(-c2ccc(Cl)c(F)c2)n1)C(=O)[O-].[Na+]` [Example 22], in assay [2] (anesthetized rats, intravenous), the “percent of inhibition” value is reported as “A (A: inhibition(%) > 50)”.

For `O=C([O-])C1(Oc2cc(N3CCc4cc(F)ccc4C3)nc(-c3ccc(F)cc3)n2)CC1.[Na+]` [Example 1110], in assay [1], the EC100 worked out at 0.3 µM. Besides, the “percent of inhibition” value in assay [2] (anesthetized rats, intravenous) is listed as “B (B: 50 > inhibition(%) > 30)”.

For the compound `CC(C)OC1CCN(c2cc(OC3(C(=O)[O-])CC3)nc(-c3ccc(Cl)c(F)c3)n2)CC1.[Na+]` [Example 52], the “percent of inhibition” value in assay [2] (anesthetized rats, intravenous) is on record as “A (A: inhibition(%) > 50)”.

`CC(C)(Oc1cc(-c2cccc3cccnc23)nc(-c2ccc(Cl)c(F)c2)n1)C(=O)[O-].[Na+]` [Example 497] had an EC100 in assay [1] of 0.31 µM. Besides, in assay [2] (anesthetized rats, intravenous), the “percent of inhibition” value is given as “B (B: 50 > inhibition(%) > 30)”.

Regarding `O=C([O-])C1(Oc2cc(N3CCC(CCO)CC3)nc(-c3ccc(Cl)c(F)c3)n2)CCCC1.[Na+]` [Example 59], in assay [1], the EC100 stood at 0.51 µM. In assay [2] (anesthetized rats, intravenous), the “percent of inhibition” value is recorded as “B (B: 50 > inhibition(%) > 30)”.

As for `COc1ccc(-c2cc(OC3(C(=O)[O-])CCCC3)nc(-c3ccc(Cl)c(F)c3)n2)cn1.[Na+]` [Example 567], in assay [2] (anesthetized rats, intravenous), the “percent of inhibition” value is “B (B: 50 > inhibition(%) > 30)”.

Turning to `COC[C@@H]1CCCN1c1cc(OC2(C(=O)[O-])CC2)nc(-c2cc(Cl)c(Cl)s2)n1.[Na+]` [Example 5], the EC100 in assay [1] amounted to 0.78 µM. Besides, the “percent of inhibition” value in assay [2] (anesthetized female Sprague-Dawley rats, i.v., 10 minutes before vs after dosing) was 78%.

In assay [1], `COc1ccc(-c2cc(OC3(C(=O)[O-])CC3)nc(-c3ccc(Cl)c(F)c3)n2)cn1.[Na+]` [Example 534] gave an EC100 of 0.36 µM. Also, in assay [2] (anesthetized rats, intravenous), the “percent of inhibition” value is on record as “B (B: 50 > inhibition(%) > 30)”.

In assay [1], `COCc1ccc(-c2cc(OC3(C(=O)[O-])CC3)nc(-c3ccc(Cl)c(F)c3)n2)cc1.[Na+]` [Example 527] had an EC100 of 0.37 µM. The “percent of inhibition” value in assay [2] (anesthetized rats, intravenous) was “A (A: inhibition(%) > 50)”.

Regarding `COCCOc1cc(F)ccc1-c1cc(OC2(C(=O)[O-])CC2)nc(-c2ccc(F)c(F)c2)n1.[Na+]` [Example 619], in assay [1], the EC100 turned out to be 0.49 µM. Also, the “percent of inhibition” value in assay [2] (anesthetized rats, intravenous) is “B (B: 50 > inhibition(%) > 30)”.

As to `COc1cc(F)cc(-c2cc(OC3(C(=O)[O-])CC3)nc(-c3ccc(Cl)c(F)c3)n2)c1.[Na+]` [Example 519], the EC100 in assay [1] came to 0.12 µM.

In assay [1], `CCOCC1CCN(c2nc(OC3(C(=O)[O-])CC3)cc(-c3ccc(Cl)s3)n2)CC1.[Na+]` [Example 1197] had an EC100 of 0.15 µM.

In the case of `O=C([O-])C1(Oc2cc(-c3cccc(C(F)(F)F)c3)nc(-c3ccc(Cl)c(F)c3)n2)CC1.[Na+]` [Example 555], the EC100 in assay [1] is 0.3 µM.

In assay [1], `Cc1cc(Cl)ccc1-c1nc(OC2(C(=O)[O-])CC2)nc(-c2ccc(Cl)cc2)n1.[Na+]` [Example 1088] showed an EC100 of 0.14 µM.

In assay [1], `CCOC1CCN(c2nc(OC3(C(=O)O)CC3)cc(-c3cc(Cl)c(Cl)s3)n2)CC1` [Example 1216] returned an EC100 of 0.54 µM.

As to `CCC(CC)(Oc1cc(N2CCC(OC)CC2)nc(-c2ccc(Cl)c(F)c2)n1)C(=O)[O-].[Na+]` [Example 33], the EC100 in assay [1] stood at 1.75 µM.

In the case of `CCCOC1CCN(c2nc(OC3(C(=O)O)CC3)cc(-c3ccc(F)c(C(F)(F)F)c3)n2)CC1` [Example 1153], the EC100 in assay [1] was found to be 0.34 µM.

With `O=C(O)C1(Oc2cc(-c3ccc(C(F)(F)F)nc3)nc(-c3ccc(Cl)c(F)c3)n2)CC1` [Example 888], in assay [1], the EC100 worked out at 0.48 µM.

In assay [1], `COc1ccc(-c2nc(-c3ccc(F)cc3)nc(OC3(C(=O)[O-])CC3)c2C)cc1Cl.[Na+]` [Example 982] yielded an EC100 of 0.1 µM.

In assay [1], `COCCC1CCN(c2nc(-c3ccc(F)cc3)nc(OC3(C(=O)O)CC3)c2C)CC1` [Example 1123] returned an EC100 of 0.95 µM.
